Experimental findings from patent US20250345446A1 (Draupnir Bio ApS, priority 2022, published 2025) are described below.

As usually defined, the KD is the equilibrium constant for the complex coming apart. The Kd is the equilibrium constant for the complex coming apart.

Residues, ends and D or L forms follow the SMILES beside them. No end group written: not given here. *: point of attachment. Biotin = O=C1N[C@H]2[C@H](CS[C@H]2CCCCC(=O)*)N1

The first assay deals with T1, Sortilin-6His (Homo sapiens (Human), UniProt Q99523 78-755).
T1 construct: In MST it was labelled non-covalently with RED-tris-NTA; also called soluble ectodomain of sortilin-6his; fluorescent sortilin-6his
T1 sequence (Q99523 78-755 V650M limits assumed): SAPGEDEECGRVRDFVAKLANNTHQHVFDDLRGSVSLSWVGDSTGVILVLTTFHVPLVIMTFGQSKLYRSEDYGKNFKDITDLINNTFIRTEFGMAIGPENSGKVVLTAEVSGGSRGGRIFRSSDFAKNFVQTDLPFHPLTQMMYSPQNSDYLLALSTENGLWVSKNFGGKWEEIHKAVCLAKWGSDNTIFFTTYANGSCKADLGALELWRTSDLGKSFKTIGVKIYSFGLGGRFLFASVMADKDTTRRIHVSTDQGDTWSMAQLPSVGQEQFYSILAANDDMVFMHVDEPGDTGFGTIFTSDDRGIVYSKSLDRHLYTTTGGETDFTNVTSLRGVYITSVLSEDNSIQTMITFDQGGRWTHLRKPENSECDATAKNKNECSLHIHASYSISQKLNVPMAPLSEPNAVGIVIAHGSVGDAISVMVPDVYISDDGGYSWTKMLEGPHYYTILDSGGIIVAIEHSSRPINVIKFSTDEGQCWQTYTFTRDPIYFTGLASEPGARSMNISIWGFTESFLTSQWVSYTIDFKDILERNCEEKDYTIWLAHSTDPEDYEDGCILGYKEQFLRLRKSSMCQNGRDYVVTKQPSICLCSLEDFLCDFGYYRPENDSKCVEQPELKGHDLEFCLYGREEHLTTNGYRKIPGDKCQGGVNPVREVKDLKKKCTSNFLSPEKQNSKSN
The experiment in a line: MST on labelled sortilin-6his ectodomain; KD score: +++ <25 nM, ++ 25-250 nM, + 250-2500 nM, 0 >2500 nM.
Details: not given
On to H-FYIL-OH [H-FYIL-OH], for which the KD was 0.25 to 2.5 µM.

Consider H-PYIL-OH [H-PYIL-OH], for which the dissociation constant (KD) fell in the range of 0.025 to 0.25 µM.

Turning to H-RQFL-OH [H-RQFL-OH], the equilibrium dissociation constant (KD) lay in the range of 0.25 to 2.5 µM.

As for H-RYIL-OH [H-RYIL-OH], the KD lay within 0.25 to 2.5 µM.

As to H-KQLL-OH [H-KQLL-OH], the KD is 0.025 to 0.25 µM.

As to H-RYFL-OH [H-RYFL-OH], the dissociation constant (KD) was 0.25 to 2.5 µM.

As for H-PYLL-OH [H-PYLL-OH], the KD was in the range of 0.25 to 2.5 µM.

As for H-PQLL-OH [H-PQLL-OH], the KD lay within 0.025 to 0.25 µM.

H-RQYL-OH [H-RQYL-OH]: the KD fell in the range of 0.25 to 2.5 µM.

A further assay deals with T2, soluble ectodomain of sortilin-6his (Homo sapiens, UniProt Q99523, V650M).
T2 construct: the soluble ectodomain of sortilin-6his is measured by microscale thermophoresis (MST)
Briefly: MST binding to soluble ectodomain of sortilin-6his. To be noted: Table 1; biotin-linker-peptide bifunctional compounds; MST; read-out: KD score, binding to sortilin (Kd).
Take `CC(C)C[C@H](NC(=O)[C@H](CC(C)C)NC(=O)[C@H](CCC(N)=O)NC(=O)[C@H](Cc1ccccc1)NC(=O)CNC(=O)CNC(=O)CNC(=O)CNC(=O)[C@H](CO)NC(=O)CNC(=O)CNC(=O)CCCC[C@@H]1SC[C@@H]2NC(=O)N[C@@H]21)C(=O)O` [compound 143] (Biotin-GGSGGGGFQLL-OH): the Kd was less than 0.1 µM.

With `CC(C)C[C@H](NC(=O)[C@H](CC(C)C)NC(=O)[C@H](CCC(N)=O)NC(=O)[C@H](Cc1ccccc1)NC(=O)CNC(=O)CNC(=O)[C@H](CO)NC(=O)CNC(=O)CNC(=O)CCCC[C@@H]1SC[C@@H]2NC(=O)N[C@@H]21)C(=O)O` [compound 144] (Biotin-GGSGGFQLL-OH), the Kd was less than 0.1 µM.

Regarding `CC(C)C[C@H](NC(=O)[C@H](CC(C)C)NC(=O)[C@H](CCC(N)=O)NC(=O)[C@H](CCCNC(=N)N)NC(=O)CNC(=O)CNC(=O)CNC(=O)CNC(=O)[C@H](CO)NC(=O)CNC(=O)CNC(=O)CCCC[C@@H]1SC[C@@H]2NC(=O)N[C@@H]21)C(=O)O` [compound 150] (Biotin-GGSGGGGRQLL-OH), the Kd is less than 0.1 µM.

As to `CC(C)C[C@H](NC(=O)[C@H](CC(C)C)NC(=O)[C@H](CCC(N)=O)NC(=O)[C@H](CCCNC(=N)N)NC(=O)[C@H](CO)NC(=O)CNC(=O)CNC(=O)CCCC[C@@H]1SC[C@@H]2NC(=O)N[C@@H]21)C(=O)O` [compound 152] (Biotin-GGSRQLL-OH), the Kd fell in the range of 0.1 to 2 µM.

Regarding `CC(C)C[C@H](NC(=O)[C@H](CC(C)C)NC(=O)[C@H](CCC(N)=O)NC(=O)[C@H](CCCNC(=N)N)NC(=O)CNC(=O)CNC(=O)CCCC[C@@H]1SC[C@@H]2NC(=O)N[C@@H]21)C(=O)O` [compound 153] (Biotin-GGRQLL-OH), the Kd is less than 0.1 µM.

Consider `CC(C)C[C@H](NC(=O)[C@H](CC(C)C)NC(=O)[C@H](CCC(N)=O)NC(=O)[C@H](CCCNC(=N)N)NC(=O)CCCC[C@@H]1SC[C@@H]2NC(=O)N[C@@H]21)C(=O)O` [compound 154] (Biotin-RQLL-OH), for which the Kd was less than 0.1 µM.

Still in this assay, the particulars now being: Table 3; monofunctional peptides; MST; read-out: KD score, binding to sortilin (Kd).
`CC(C)C[C@H](NC(=O)[C@H](CC(C)C)NC(=O)[C@H](Cc1ccc(O)cc1)NC(=O)[C@@H](N)Cc1ccccc1)C(=O)O` [compound 28, FYLL-OH] (H-FYLL-OH): the Kd lay within 0.025 to 0.25 µM.

For the molecule `CC(C)C[C@H](NC(=O)[C@H](CC(C)C)NC(=O)[C@H](CCC(N)=O)NC(=O)[C@@H](N)Cc1ccc(O)cc1)C(=O)O` [compound 29, YQLL-OH] (H-YQLL-OH), the Kd was in the range of 0.025 to 0.25 µM.

As for `CC[C@H](C)[C@H](NC(=O)[C@H](Cc1ccc(O)cc1)NC(=O)[C@@H](N)Cc1ccccc1)C(=O)N[C@@H](CC(C)C)C(=O)O` [compound 31] (H-FYIL-OH), the Kd fell in the range of 0.25 to 2.5 µM.

For the molecule `CC[C@H](C)[C@H](NC(=O)[C@H](Cc1ccc(O)cc1)NC(=O)[C@@H](N)CCCNC(=N)N)C(=O)N[C@@H](CC(C)C)C(=O)O` [compound 32] (H-RYIL-OH), the dissociation constant (Kd) was 0.25 to 2.5 µM.

In the case of `CC(C)C[C@H](NC(=O)[C@H](CC(C)C)NC(=O)[C@H](Cc1ccc(O)cc1)NC(=O)[C@@H]1CCCN1)C(=O)O` [compound 33] (H-PYLL-OH), the Kd was in the range of 0.25 to 2.5 µM.

On to `CC(C)C[C@H](NC(=O)[C@H](Cc1ccc(O)cc1)NC(=O)[C@H](Cc1ccc(O)cc1)NC(=O)[C@@H](N)CCCNC(=N)N)C(=O)O` [compound 36] (H-RYYL-OH), for which the Kd was 0.025 to 0.25 µM.

For the molecule `CC(C)C[C@H](NC(=O)[C@H](Cc1ccccc1)NC(=O)[C@H](Cc1ccc(O)cc1)NC(=O)[C@@H](N)CCCNC(=N)N)C(=O)O` [compound 37] (H-RYFL-OH), the Kd was in the range of 0.25 to 2.5 µM.

Take `CC(C)C[C@H](NC(=O)[C@H](Cc1ccccc1)NC(=O)[C@H](CCC(N)=O)NC(=O)[C@@H](N)CCCNC(=N)N)C(=O)O` [compound 38] (H-RQFL-OH): the Kd lay within 0.25 to 2.5 µM.

For the molecule `CC(C)C[C@H](NC(=O)[C@H](Cc1ccc(O)cc1)NC(=O)[C@H](CCC(N)=O)NC(=O)[C@@H](N)CCCNC(=N)N)C(=O)O` [compound 39] (H-RQYL-OH), the Kd was 0.25 to 2.5 µM.

For `CC(C)C[C@H](NC(=O)[C@H](CC(C)C)NC(=O)[C@H](CCC(N)=O)NC(=O)[C@@H](N)Cc1c[nH]cn1)C(=O)O` [compound 41] (H-HQLL-OH; N-terminus assumed), the Kd is more than 2.5 µM.

For the molecule `CC[C@H](C)[C@H](N)C(=O)N[C@@H](CCC(N)=O)C(=O)N[C@@H](CC(C)C)C(=O)N[C@@H](CC(C)C)C(=O)O` [compound 42] (H-IQLL-OH; N-terminus assumed), the Kd was 0.25 to 2.5 µM.

With `CC(C)C[C@H](NC(=O)[C@H](Cc1ccc(O)cc1)NC(=O)[C@H](Cc1ccc(O)cc1)NC(=O)[C@@H](N)Cc1ccccc1)C(=O)O` [compound 43] (H-FYYL-OH; N-terminus assumed), the Kd is more than 2.5 µM.

`CC(C)C[C@H](NC(=O)[C@H](CCCNC(=N)N)NC(=O)[C@H](CCCNC(=N)N)NC(=O)[C@H](CCCCN)NC(=O)[C@H](CCCCN)NC(=O)[C@H](Cc1ccccc1)NC(=O)[C@H](CC(C)C)NC(=O)[C@@H](N)CCCNC(=N)N)C(=O)N[C@@H](CCCNC(=N)N)C(=O)N[C@@H](CO)C(=O)N1CCC[C@H]1C(=O)N[C@@H](CCCNC(=N)N)C(=O)N[C@H](C(=O)N[C@@H](CC(C)C)C(=O)N[C@@H](Cc1ccccc1)C(N)=O)C(C)C` [compound 47]: the Kd is more than 2.5 µM.

As for `CC(C)C[C@H](NC(=O)[C@H](CC(C)C)NC(=O)[C@H](CCC(N)=O)NC(=O)[C@H](CCCNC(=N)N)NC(=O)[C@H](CC(C)C)NC(=O)[C@H](C)NC(=O)[C@@H]1CCCN1C(=O)[C@H](CC(=O)O)NC(=O)[C@H](CCCNC(=N)N)NC(=O)[C@H](CC(C)C)NC(=O)[C@@H]1CCCN1C(=O)[C@H](C)NC(=O)[C@H](CC(=O)O)NC(=O)[C@H](Cc1c[nH]c2ccccc12)NC(=O)[C@H](CCCNC(=N)N)NC(=O)[C@@H]1CCCN1C(=O)[C@H](C)NC(=O)[C@H](CCC(=O)O)NC(=O)[C@@H](N)CCCNC(=N)N)C(=O)O` [compound 53], the Kd was less than 0.025 µM.

Take `CC[C@H](C)[C@H](NC(=O)[C@H](Cc1ccc(O)cc1)NC(=O)[C@@H]1CCCN1C(=O)[C@H](CCCNC(=N)N)NC(=O)[C@H](CCCNC(=N)N)NC(=O)[C@@H]1CCCN1C(=O)[C@H](CCCCN)NC(=O)[C@H](CC(N)=O)NC(=O)[C@H](CCC(=O)O)NC(=O)[C@H](Cc1ccc(O)cc1)NC(=O)[C@@H](N)CC(C)C)C(=O)N[C@@H](CC(C)C)C(=O)O` [compound 56]: the Kd lay within 0.025 to 0.25 µM.

`CC(C)C[C@H](N)C(=O)N[C@@H](Cc1ccc(O)cc1)C(=O)N[C@@H](CCC(=O)O)C(=O)N[C@@H](CC(N)=O)C(N)=O` [compound 64] (H-LYEN-NH2; N-terminus assumed): the Kd was more than 2.5 µM.

As to `CC[C@H](C)[C@H](NC(=O)[C@H](CC(C)C)NC(=O)[C@H](CCC(N)=O)NC(=O)[C@@H](N)CCCNC(=N)N)C(=O)O` [compound 163] (H-RQLI-OH), the equilibrium dissociation constant (Kd) was more than 2.5 µM.

Consider `CC(C)C[C@H](NC(=O)[C@H](CCC(N)=O)NC(=O)[C@@H](N)CCCNC(=N)N)C(=O)N[C@@H](Cc1ccccc1)C(=O)O` [compound 164] (H-RQLF-OH), for which the Kd is more than 2.5 µM.

As for `CSCC[C@H](NC(=O)[C@H](CC(C)C)NC(=O)[C@H](CCC(N)=O)NC(=O)[C@@H](N)CCCNC(=N)N)C(=O)O` [compound 165] (H-RQLM-OH), the Kd is more than 2.5 µM.

In the case of `CC(C)C[C@H](NC(=O)[C@H](CCC(N)=O)NC(=O)[C@@H](N)CCCNC(=N)N)C(=O)O` [compound 166] (H-Arg-Gln-Leu-OH), the Kd was more than 2.5 µM.

As to `CC(C)C[C@H](NC(=O)[C@H](CCCNC(=N)N)NC(=O)[C@H](C)NC(=O)[C@H](C)N)C(=O)O` [compound 196, AARL-OH] (H-AARL-OH), the Kd lay within 0.25 to 2.5 µM.

Turning to APLRDPAPRQLL-OH [compound 57], the Kd is 0.025 to 0.25 µM.

Consider GGSGGGGSGGGGSGGRQLL-OH [compound 167], for which the Kd lay within 0.025 to 0.25 µM.

In the case of H-GVSWGLR-OH [compound 52], the Kd is more than 2.5 µM.

In the case of “H-ITVDPRLFKKRRLRSPRVLF-NH2 [compound 48]”, the Kd was more than 2.5 µM.

On to “H-WSGPIGVSWGLRAAAAGFQLL-OH [compound 179]”, for which the Kd is less than 0.025 µM.

LYENK-NH2 [compound 65]: the Kd is more than 2.5 µM.

As for PIPLV [compound 197, PIPLV-OH], the Kd was more than 2.5 µM.

As for REALRWDAPLRDPAPRQLL-OH [compound 54], the dissociation constant (Kd) was less than 0.025 µM.

On to REAPRWDAPLRDPALFQLL-OH [compound 58], for which the Kd was less than 0.025 µM.

Regarding REAPRWDAPLRDPALRYLL-OH [compound 59], the equilibrium dissociation constant (Kd) is less than 0.025 µM.

Take REAPRWDAPLRDPALRYYL-OH [compound 61]: the Kd fell in the range of 0.025 to 0.25 µM.

Regarding TGGFM-OH [compound 62], the Kd was more than 2.5 µM.
